# Patent US10357537B2, “Cyclotides as immunosuppressive agents” (priority 2011, dated 2019)
# Bridge positions count the residues as written; N and C are the ends. Peptide text beside a SMILES is read from it.
# Assays:
# [1] = test system: IL-2 mRNA in PHA-L-activated cells; assay: IL-2 gene expression, real-time PCR; type: cell-based, human; settings: 4 hours, vs control
# Procedure: C. IL-2 gene expression analysis using RT-PCR. […] RT-PCR was carried out using specific primers for indicated gene. The data were normalized to the Ct value of the internal housekeeping gene 18s rRNA and the relative mRNA level in the untreated stimulated group was used as calibrator. Data were expressed as mean+SD of three independent experiments.
# Total RNA was extracted from controls or treated cells (2×10^6) frozen at −80° C. RNA-purification was performed according to the manufacturer's instructions for the RNeasy mini and Rnase-Free Dnase Set digestion kits (Qiagen, Hilden, Germany). The quantity and purity of extracted RNA was measured by spectrophotometry (Nanodrop, Peqlab, Erlangen, Germany) and purified RNA was reverse transcribed using the RT^2 First Stand Kit (Qiagen, Hilden, Germany).
# RT-PCR reactions were carried out on a BioRad MyiQ (BioRad, Munich, Germany) in a final volume of 25 μL using RT^2 qPCR Primer Assay (for IL-2) and SYBR® Green qPCR Mastermix (both from Qiagen, Hilden, Germany). […] Results were expressed as relative gene expression of IL-2 and were determined by comparative Ct method. […]
# To determine whether cyclotides have an impact at the gene expression level of the, il-2 gene expression (as control we used 18s rRNA) in PBMC cells was investigated by quantitative real-time PCR (FIG. 12C).
# [2] = test system: TNF-alpha production of activated PBMCs; assay: TNF-alpha secretion of PBMC, ELISA-based FACS; type: cell-based, human; settings: 24 h + 6 h PMA/ionomycin; T20K 4 μM, CsA 5 μg/mL
# Procedure: FIG. 15. […] Untreated cells were used as control. Following 24 h or 36 h of cultivation, the cells were restimulated with PMA/Ionomycin for further 6 hour. […] The data are presented as mean and standard deviation (SD) of three independent experiments.
# Activated cells were resuspended in 50 μl of medium, transferred into a 96-well plate and treated with 10 μg/ml PHA-L. After incubation for 24 h cells were re-stimulated with PMA (50 ng/ml) und ionomycin (500 ng/ml) for 6 h. Next, the cells were transferred into Eppendorf tubes, centrifuged (5 min, 3000 RPM, 20° C.) und 50 μl of the supernatant was again transferred into new tubes and stored at −20° C. Production of cytokines was measured and quantified using the FlowCytomix™ kit according to manufacturer's instructions.
# Therefore it is of interest to determine whether cyclotides only have anti-proliferative effects or also affect the effector function of T-lymphocytes, which would directly relate to changes in the IFN-gamma and TNF-alpha production. Therefore, the production of both cytokines of cyclotide-treated, activated PBMCs at an early time point after PBMC activation was tested.
# human primary T-cells = assay: Ca2+ release, Fura-2; type: cell-based; settings: T20K 4 μM
# Procedure: FIG. 17. Ca^2+ release in human Jurkat and T-cells. Jurkat cells (A) and T-cells (B) 1×10^6 were loaded with 1 μM Fura-2 and 0.02% Puronic F-127 for 30 minutes at 37° C. Cells were centrifuged for 5 minutes at 1200 rpm and resuspended in media [RPMI 1640 with 10% FCS, penicillin (100 U/mL) and streptomycin ([…])]. 100 μL of cell suspension were transferred to a black 96-well plate with a clear flat-bottom. Briefly before analysis the fluorometer Synergy H4 (BioTek) was tempered to 37° C. The fluorescence time course was then measured with: extinction 340/380 nm and emission 510 nm in 30 seconds intervals, continuously shaking. Ca^2+ influx was initiated by adding compounds to the cells (illustrated by the arrow). To receive maximum Ca^2+ release cells were stimulated with PMA (50 ng/mL) and Ionomycin (500 ng/mL) and T-cells additionally with PHA-L (10 μg/mL). For lowest Ca^2+ levels, cells remained untreated.
# Jurkat cells T-cells were treated as described for FIG. 17, supra.
# [3] = test system: activated human primary PBMC; assay: Anti-proliferative CFSE cell division assay on anti-CD3/CD28-activated PBMC; settings: CFSE, flow cytometry; extract 50-100 μg/mL, cyclotides 1.8-14 μM, melittin 0.05-1.6 μM
# How it was run: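 Healthy-donor PBMC were CFSE-labelled (5 μM, 10 min, 37° C.), activated with anti-CD3/CD28 and cultured in RPMI 1640 with 10% FCS at 37° C. with the cyclotide mutants/variants. Proliferation was read as cell division by flow-cytometric CFSE histogram analysis.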
smiles,measurement,setting,value
"CC(C)C[C@@H]1NC(=O)CNC(=O)[C@H](CC(N)=O)NC(=O)[C@H](CCCNC(=N)N)NC(=O)[C@H]([C@@H](C)O)NC(=O)[C@@H]2CSSC[C@@H]3NC(=O)[C@H]([C@@H](C)O)NC(=O)CNC(=O)CNC(=O)[C@H](C(C)C)NC(=O)[C@@H]4CSSC[C@H](NC(=O)[C@H](CCCCN)NC(=O)[C@H](CSSC[C@H](NC(=O)[C@H](C(C)C)NC(=O)[C@@H]5CCCN5C1=O)C(=O)NCC(=O)N[C@@H](CCC(=O)O)C(=O)N[C@@H]([C@@H](C)O)C(=O)N4)NC(=O)CNC(=O)[C@@H]1CCCN1C(=O)[C@H]([C@@H](C)O)NC(=O)[C@H](CC(N)=O)NC3=O)C(=O)N[C@@H](CO)C(=O)N[C@@H](Cc1c[nH]c3ccccc13)C(=O)N1CCC[C@H]1C(=O)N[C@@H](C(C)C)C(=O)N2 [Kalata T20K] (cyclo(CGETCVGGTCNTPGCKCSWPVCTRNGLPV); disulfide 1-15, 5-17, 10-22 (inferred); ring closure inferred)",level of IL-2 mRNA,[1],clearly decreases the level of IL-2 mRNA
same,"TNF-alpha expression as compared to the control, 24 h",[2],23%±10.6
same,Ca2+ release in human primary T-cells,human primary T-cells,increasing Ca^2+ release
same,cell division / proliferation of activated PBMC (in words),[3],show anti-proliferative capacity
